The record followed here is patent publication US9809583B2 (priority 2014, dated 2017).

Counter-ions that a name gives are not always drawn. Like-named read-outs stand apart in the source and are kept apart here.

This test has as its target androgen receptor (hAR) (Homo sapiens (Human), UniProt P10275). Description: Test of transcriptional activity (hAR / ARE-Luc dual-luciferase assay in CHO cells). The test is classed as cell-based. The following applies: CHO cells with hAR and ARE-Luc, 24 hours, 10 nM DHT = 100%. Here is the method:
In order to examine the transcriptional activity of the agonists of the present invention, the following in-vitro experiment was performed. CHO (Chinese hamster ovary) cell line (ATCC, #CCL-61) was seeded in a 96-well plate at a density of 1.5×10^4 cells/well, and cultured for 24 hours. Then, a plasmid hAR and plasmid ARE-Luc-mixed medium was added thereto. The transfected cell line was treated with 0.1˜10,000 nM of SARM derivatives, and then allowed to react for 24 hours.

The mark [1] stands for this setting: read-out: EC50 [nM] (mean ± SE).

The EC50 is the concentration that produces a half-maximal response.

Sequence of androgen receptor (hAR) (P10275 whole entry): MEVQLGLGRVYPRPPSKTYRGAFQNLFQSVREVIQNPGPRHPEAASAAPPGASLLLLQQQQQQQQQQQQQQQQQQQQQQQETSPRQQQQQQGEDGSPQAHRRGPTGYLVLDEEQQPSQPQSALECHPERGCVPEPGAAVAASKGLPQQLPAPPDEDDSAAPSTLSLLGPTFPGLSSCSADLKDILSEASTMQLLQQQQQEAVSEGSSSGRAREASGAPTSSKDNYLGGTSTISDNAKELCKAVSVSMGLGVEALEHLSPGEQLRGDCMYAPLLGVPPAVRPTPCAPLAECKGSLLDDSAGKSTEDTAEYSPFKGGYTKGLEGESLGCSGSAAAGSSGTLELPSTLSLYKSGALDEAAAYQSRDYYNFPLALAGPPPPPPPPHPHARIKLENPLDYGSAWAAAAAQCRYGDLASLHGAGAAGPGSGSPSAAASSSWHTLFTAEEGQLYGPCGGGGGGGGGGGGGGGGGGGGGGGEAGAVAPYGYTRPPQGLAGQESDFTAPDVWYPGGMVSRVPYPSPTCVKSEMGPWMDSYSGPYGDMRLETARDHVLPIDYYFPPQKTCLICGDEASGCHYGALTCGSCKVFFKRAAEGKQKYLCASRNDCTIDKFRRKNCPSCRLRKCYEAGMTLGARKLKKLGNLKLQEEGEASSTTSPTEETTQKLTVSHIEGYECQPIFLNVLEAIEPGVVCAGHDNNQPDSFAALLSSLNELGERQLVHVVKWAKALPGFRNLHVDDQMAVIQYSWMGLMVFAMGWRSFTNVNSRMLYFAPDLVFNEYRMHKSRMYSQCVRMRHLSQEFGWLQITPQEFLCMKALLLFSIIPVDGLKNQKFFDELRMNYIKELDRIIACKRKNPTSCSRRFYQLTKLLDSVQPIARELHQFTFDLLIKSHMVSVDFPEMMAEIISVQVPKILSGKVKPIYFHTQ

`N#Cc1ccc(N2C[C@@H](COc3ccc(CO)cc3)O[C@@H]2C(F)(F)F)cc1C(F)(F)F` [Example 67, 4-((2R,5S)-5-((4-(hydroxymethyl)phenoxy)methyl)-2-(trifluoromethyl)oxazolidin-3-yl)-2-(trifluoromethyl)benzonitrile]: the EC50 (EC50 [nM] (mean ± SE)) came out at 3.93 nM.
In turn, `N#Cc1ccc(N2C[C@@H](COc3ccnc(Cl)c3)O[C@@H]2C(F)(F)F)cc1C(F)(F)F` [Example 68, 4-((2R,5S)-5-(((2-chloropyridin-4-yl)oxy)methyl)-2-(trifluoromethyl)oxazolidin-3-yl)-2-(trifluoromethyl)benzonitrile] yielded an EC50 (EC50 [nM] (mean ± SE)) of 6.06 nM.
Regarding `Cc1cc(N2C[C@@H](COc3ccncc3)O[C@@H]2C(F)(F)F)ccc1[N+](=O)[O-]` [Example 69, (2R,5S)-3-(3-methyl-4-nitrophenyl)-5-((pyridin-4-yloxy)methyl)-2-(trifluoromethyl)oxazolidine], under setting [1], the EC50 amounted to 1.54 nM.
In the case of `Cc1cc(N2C[C@@H](COc3ccc(/C=N/O)cc3)O[C@@H]2C(F)(F)F)ccc1[N+](=O)[O-]` [Example 70, (E)-4-(((2R,5S)-3-(3-methyl-4-nitrophenyl)-2-(trifluoromethyl)oxazolidin-5-yl)methoxy)benzaldehyde oxime], under setting [1], the EC50 came out at 0.62 nM.
Molecule `N#Cc1ccc(OC[C@@H]2CN(c3ccc(C#N)c(Cl)c3)[C@@H](C(F)(F)F)O2)cc1` [Example 71, 2-chloro-4-((2R,5S)-5-((4-cyanophenoxy)methyl)-2-(trifluoromethyl)oxazolidin-3-yl)benzonitrile] had an EC50 (EC50 [nM] (mean ± SE)) of 1.57 nM.
`N#Cc1ccc(N2C[C@@H](COc3ccncc3)O[C@@H]2C(F)(F)F)cc1Cl` [Example 72, 2-chloro-4-((2R,5S)-5-((pyridin-4-yloxy)methyl)-2-(trifluoromethyl)oxazolidin-3-yl)benzonitrile] yielded an EC50 (EC50 [nM] (mean ± SE)) of 1.03 nM.
On to `N#Cc1ccc(OC[C@@H]2CN(c3ccc(C#N)c(Cl)c3)[C@@H](C(F)(F)F)O2)cn1` [Example 73, 5-(((2R,5S)-3-(3-chloro-4-cyanophenyl)-2-(trifluoromethyl)oxazolidin-5-yl)methoxy)picolinonitrile], for which the EC50 (EC50 [nM] (mean ± SE)) was 0.991 nM.
In the case of `N#Cc1ccc(N2C[C@@H](COc3ccc(/C=N/O)cc3)O[C@@H]2C(F)(F)F)cc1Cl` [Example 74, 2-chloro-4-((2R,5S)-5-((4-((E)-(hydroxyimino)methyl)phenoxy)methyl)-2-(trifluoromethyl)oxazolidin-3-yl)benzonitrile], the EC50 (EC50 [nM] (mean ± SE)) was found to be 0.658 nM.
Still for that read-out and setting: then `Cc1c(N2C[C@@H](COc3ccc(C#N)cc3)O[C@@H]2C(F)(F)F)ccc(C#N)c1Cl` [Example 75, 2-chloro-4-((2R,5S)-5-((4-cyanophenoxy)methyl)-2-(trifluoromethyl)oxazolidin-3-yl)-3-methylbenzonitrile], with 37 nM; and `Cc1c(N2C[C@@H](COc3ccncc3)O[C@@H]2C(F)(F)F)ccc(C#N)c1Cl` [Example 76, 2-chloro-3-methyl-4-((2R,5S)-5-((pyridin-4-yloxy)methyl)-2-(trifluoromethyl)oxazolidin-3-yl)benzonitrile], with 21.8 nM.
Regarding `Cc1c(N2C[C@@H](COc3ccc(C#N)nc3)O[C@@H]2C(F)(F)F)ccc(C#N)c1Cl` [Example 77, 5-(((2R,5S)-3-(3-chloro-4-cyano-2-methylphenyl)-2-(trifluoromethyl)oxazolidin-5-yl)methoxy)picolinonitrile], a half-maximal response (EC50 [nM] (mean ± SE)) (EC50) required 10.6 nM.
For the molecule `Cc1c(N2C[C@@H](COc3ccc(/C=N/O)cc3)O[C@@H]2C(F)(F)F)ccc(C#N)c1Cl` [Example 78, 2-chloro-4-((2R,5S)-5-((4-((E)-(hydroxyimino)methyl)phenoxy)methyl)-2-(trifluoromethyl)oxazolidin-3-yl)-3-methylbenzonitrile], where the note is “EC50 [nM] (mean ± SE)”, the EC50 was 4.91 nM.
Under “EC50 [nM] (mean ± SE)”, `N#Cc1ccc(N2C[C@@H](COc3ccncc3)O[C@H]2C(F)(F)F)cc1C(F)(F)F` [Example 80, 4-((2S,5S)-5-((pyridin-4-yloxy)methyl)-2-(trifluoromethyl)oxazolidin-3-yl)-2-(trifluoromethyl)benzonitrile] displayed an EC50 of 34 nM.
In the case of `N#Cc1ccc(OC[C@@H]2CN(c3ccc([N+](=O)[O-])c(C(F)(F)F)c3)[C@H](C(F)(F)F)O2)cc1` [Example 81, 4-(((2S,5S)-3-(4-nitro-3-(trifluoromethyl)phenyl)-2-(trifluoromethyl)oxazolidin-5-yl)methoxy)benzonitrile], the EC50 under setting [1] worked out at 59.5 nM.
With `Cc1cc(N2C[C@@H](COc3ccc(C#N)cc3)O[C@H]2C(F)(F)F)ccc1[N+](=O)[O-]` [Example 82, 4-(((2S,5S)-3-(3-methyl-4-nitrophenyl)-2-(trifluoromethyl)oxazolidin-5-yl)methoxy)benzonitrile], the EC50 under setting [1] stood at 21.1 nM.
Consider `N#Cc1ccc(OC[C@@H]2CN(c3ccc(C#N)c(Cl)c3)[C@H](C(F)(F)F)O2)cc1` [Example 83, 2-chloro-4-((2S,5S)-5-((4-cyanophenoxy)methyl)-2-(trifluoromethyl)oxazolidin-3-yl)benzonitrile], for which the EC50 (EC50 [nM] (mean ± SE)) is 29.6 nM.
Still for that read-out and setting: then `Cc1c(N2C[C@@H](COc3ccc(C#N)cc3)O[C@H]2C(F)(F)F)ccc(C#N)c1Cl` [Example 84, 2-chloro-4-((2S,5S)-5-((4-cyanophenoxy)methyl)-2-(trifluoromethyl)oxazolidin-3-yl)-3-methylbenzonitrile], with 1140 nM; and `CO/N=C/c1ccc(OC[C@@H]2CN(c3ccc(C#N)c(C(F)(F)F)c3)[C@@H](C(F)(F)F)O2)cc1` [Example 85, 4-((2R,5S)-5-((4-((E)-(methoxyimino)methyl)phenoxy)methyl)-2-(trifluoromethyl)oxazolidin-3-yl)-2-(trifluoromethyl)benzonitrile], with 9.84 nM.
Consider `O=[N+]([O-])c1ccc(N2C[C@@H](COc3ccc(/C=N/O)cc3)O[C@@H]2C(F)(F)F)cc1C(F)(F)F` [Example 87, (E)-4-(((2R,5S)-3-(4-nitro-3-(trifluoromethyl)phenyl)-2-(trifluoromethyl)oxazolidin-5-yl)methoxy)benzaldehyde oxime], for which the EC50 under setting [1] was 9.22 nM.
`CC(C)(C)OC(=O)NCc1ccc(OC[C@@H]2CN(c3ccc(C#N)c(C(F)(F)F)c3)[C@@H](C(F)(F)F)O2)cc1` [Example 88] displayed an EC50 (EC50 [nM] (mean ± SE)) of 926 nM.
Where the note is “EC50 [nM] (mean ± SE)”, `N#Cc1ccc(N2C[C@@H](COc3ccc(CN)cc3)O[C@@H]2C(F)(F)F)cc1C(F)(F)F` [Example 89, 4-((2R,5S)-5-((4-(aminomethyl)phenoxy)methyl)-2-(trifluoromethyl)oxazolidin-3-yl)-2-(trifluoromethyl)benzonitrile hydrochloride] had an EC50 of 34.2 nM.
Where the note is “EC50 [nM] (mean ± SE)”, `N#Cc1ccc(N2C[C@@H](COc3ccc(NC(=O)CO)cc3)O[C@@H]2C(F)(F)F)cc1C(F)(F)F` [Example 94, N-(4-(((2R,5S)-3-(4-cyano-3-(trifluoromethyl)phenyl)-2-(trifluoromethyl)oxazolidin-5-yl)methoxy)phenyl)-2-hydroxyacetamide] had an EC50 of 4.12 nM.
Molecule `N#CCC(=O)Nc1ccc(OC[C@@H]2CN(c3ccc(C#N)c(C(F)(F)F)c3)[C@@H](C(F)(F)F)O2)cc1` [Example 95, 2-cyano-N-(4-(((2R,5S)-3-(4-cyano-3-(trifluoromethyl)phenyl)-2-(trifluoromethyl)oxazolidin-5-yl)methoxy)phenyl)acetamide] gave an EC50 (EC50 [nM] (mean ± SE)) of 2.81 nM.
For the setting “EC50 [nM] (mean ± SE)”, `N#Cc1ccc(N2C[C@@H](COc3ccc(/C=N/O)cc3[N+](=O)[O-])O[C@@H]2C(F)(F)F)cc1C(F)(F)F` [Example 98, 4-((2R,5S)-5-((4-((E)-(hydroxyimino)methyl)-2-nitrophenoxy)methyl)-2-(trifluoromethyl)oxazolidin-3-yl)-2-(trifluoromethyl)benzonitrile] gave an EC50 of 2.91 nM.
`N#Cc1ccc(OC[C@@H]2CN(c3ccc(C#N)c(C(F)(F)F)c3)[C@@H](C(F)(F)F)O2)c([N+](=O)[O-])c1` [Example 99, 4-((2R,5S)-5-((4-cyano-2-nitrophenoxy)methyl)-2-(trifluoromethyl)oxazolidin-3-yl)-2-(trifluoromethyl)benzonitrile] registered an EC50 (EC50 [nM] (mean ± SE)) of 97.3 nM.
For the molecule `N#Cc1ccc(N2C[C@@H](C(=O)Nc3ccc([N+](=O)[O-])cc3F)O[C@@H]2C(F)(F)F)cc1C(F)(F)F` [Example 104], a half-maximal response (EC50 [nM] (mean ± SE)) (EC50) required 24.9 nM.
Where the note is “EC50 [nM] (mean ± SE)”, `N#Cc1ccc(N2C[C@@H](C(=O)Nc3ccc(N)cc3F)O[C@@H]2C(F)(F)F)cc1C(F)(F)F` [Example 105, (2R,5S)-N-(4-amino-2-fluorophenyl)-3-(4-cyano-3-(trifluoromethyl)phenyl)-2-(trifluoromethyl)oxazolidine-5-carboxamide] had an EC50 of 49.9 nM.
For `CC(=O)Nc1ccc(NC(=O)[C@@H]2CN(c3ccc(C#N)c(C(F)(F)F)c3)[C@@H](C(F)(F)F)O2)c(F)c1` [Example 106, (2R,5S)-N-(4-acetamido-2-fluorophenyl)-3-(4-cyano-3-(trifluoromethyl)phenyl)-2-(trifluoromethyl)oxazolidine-5-carboxamide], for the setting “EC50 [nM] (mean ± SE)”, the response was half-maximal at 154 nM (EC50).
Molecule `N#Cc1ccc(N2C[C@@H](C(=O)Nc3ccncc3)O[C@@H]2C(F)(F)F)cc1C(F)(F)F` [Example 107, (2R,5S)-3-(4-cyano-3-(trifluoromethyl)phenyl)-N-(pyridin-4-yl)-2-(trifluoromethyl)oxazolidine-5-carboxamide] showed an EC50 (EC50 [nM] (mean ± SE)) of 7.18 nM.
As for `N#Cc1ccc(NC(=O)[C@@H]2CN(c3ccc(C#N)c(C(F)(F)F)c3)[C@@H](C(F)(F)F)O2)cn1` [Example 108, (2R,5S)-3-(4-cyano-3-(trifluoromethyl)phenyl)-N-(6-cyanopyridin-3-yl)-2-(trifluoromethyl)oxazolidine-5-carboxamide], it took 17 nM to reach a half-maximal effect (EC50 [nM] (mean ± SE)) (EC50).
Consider `CC(=O)Nc1ccc(NC(=O)[C@@H]2CN(c3ccc(C#N)c(C(F)(F)F)c3)[C@@H](C(F)(F)F)O2)cc1` [Example 109, (2R,5S)-N-(4-acetamidophenyl)-3-(4-cyano-3-(trifluoromethyl)phenyl)-2-(trifluoromethyl)oxazolidine-5-carboxamide], for which the response (EC50 [nM] (mean ± SE)) was half-maximal at 5.09 nM (EC50).
